# Active and inactive are the calls of the source.
# Columns and labels:
# [1] = tested on: HeLa; test: viability loss in HeLa cells – cell-based, ATP luminescence, cherry-pick samples, cytotoxicity control, dose response (AID 687004); assay type: functional; details: Homo sapiens
# [2] = non-specific 3'UTR reporter inhibition in Clone20-Shn3RL – cell-based, Renilla luciferase, cherry-picked, counter-screen for Shn3 inhibitor project, dose response (AID 624133); assay type: functional
# [3] = Fluorescence-based cell-based high throughput dose response assay for inhibitors of the interaction of nucleotide-binding oligomerization domain containing 2 (NOD2) and the receptor-interacting serine-threonine kinase 2 (RIPK2).; assay type: functional; details: Homo sapiens
# [4] = reduced cellular PGC1a acetyl-lysine signal – cell-based, cherry-picked samples, dose response (AID 720514); assay type: functional;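 further: potency may reflect raised or lowered acetylation signal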
# [5] = reduction of Shn3 3'UTR-driven luciferase in osteoblasts – cell-based, Clone20 osteoblasts, firefly luciferase, cherry-picked, dose response (AID 624132); assay type: functional;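 further: firefly luciferase luminescence from reporter carrying the Shn3 3'UTR in osteoblasts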
# [6] = biological target: Heat shock protein HSP 90-alpha (Homo sapiens, UniProt P07900); assay type: functional, organism-based
# [7] = biological target: Transthyretin (Homo sapiens, UniProt P02766); test: Luminescence-based cell-based high throughput dose response assay to identify activators of Transthyretin (TTR) transcription.; assay type: functional
# [8] = biological target: Paired box protein Pax-8 (Homo sapiens, UniProt Q06710); test: PAX8 transcriptional activity inhibition in RMG-I – RMG-I cells, luciferase, cherry-pick, dose response (AID 687027); assay type: functional, cell-based;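 further: luciferase reporter driven by Pax8 target thyroperoxidase promoter measured by SteadyGlo luminescence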
# [9] = blockers of HIV-1 ZM109 envelope-driven cell-cell fusion – HeLa effector, CEM target cells, luciferase, cherry-pick, dose response (AID 652058); assay type: functional, cell-based;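 further: luciferase signal from HIV-1 Env mediated cell-cell fusion of effector and target cells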
# [10] = Dd2 malaria parasite growth inhibition potency – SYBR Green, dry powder samples, dose response (AID 1159566); assay type: functional, cell-based;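 further: potency for growth inhibition with lower SYBR green DNA signal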
# [11] = blockers of HIV-1 envelope-mediated cell-cell fusion – cherry-pick, dose response (AID 652057); assay type: functional, cell-based
# [12] = P. falciparum Dd2 growth inhibitors, dose response, SYBR Green, cherry-picked samples (AID 1159567); assay type: functional, cell-based
# [13] = growth inhibition of yeast DHODH-expressing 3D7 parasites – SYBR Green, dry powder samples, dose response (AID 1159570); assay type: functional, cell-based;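 further: parasite growth measured after 72 hours of compound exposure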
# [14] = HIV-1 AD8 envelope cell-cell fusion blockers – cherry-pick, dose response (AID 652062); assay type: functional, cell-based;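 further: luciferase signal from cell-cell fusion driven by HIV-1 clade B AD8 Env; potency is for inhibitors of fusion seen as a drop in luminescence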
# [15] = growth inhibition of PfATP4-mutant resistant parasites – NITD609-resistant line, SYBR Green, dry powder, dose response (AID 1159571); assay type: functional, cell-based;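 further: parasites synchronized at ring stage by sorbitol before testing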
# [16] = biological target: T1, Sentrin-specific protease 8 (Homo sapiens, UniProt Q96LD8); assay type: functional;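 further: luminescence read-out of SENP8 inhibition, dose-response confirmation following an ultra-high-throughput screen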
# T1 sequence (Q96LD8 whole entry): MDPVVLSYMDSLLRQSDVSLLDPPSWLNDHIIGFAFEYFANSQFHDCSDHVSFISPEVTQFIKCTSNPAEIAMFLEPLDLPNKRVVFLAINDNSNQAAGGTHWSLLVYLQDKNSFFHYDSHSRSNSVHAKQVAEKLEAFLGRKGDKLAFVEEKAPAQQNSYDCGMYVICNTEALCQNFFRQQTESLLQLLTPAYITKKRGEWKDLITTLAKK
# [17] = cells
# [18] = biological target: T2, Oxysterols receptor LXR-beta (Homo sapiens, UniProt P55055); assay type: functional, cell-based;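 further: Cell-based luminescence dose-response assay of agonist activity at LXR, run as a confirmatory counterscreen to a daf-12 agonist screen; HEK293 cells with Gal4-LXR fusion and GAL4-driven luciferase reporter; agonist potency from rising luciferase signal of a Gal4-LXR reporter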
# T2 sequence (P55055 whole entry): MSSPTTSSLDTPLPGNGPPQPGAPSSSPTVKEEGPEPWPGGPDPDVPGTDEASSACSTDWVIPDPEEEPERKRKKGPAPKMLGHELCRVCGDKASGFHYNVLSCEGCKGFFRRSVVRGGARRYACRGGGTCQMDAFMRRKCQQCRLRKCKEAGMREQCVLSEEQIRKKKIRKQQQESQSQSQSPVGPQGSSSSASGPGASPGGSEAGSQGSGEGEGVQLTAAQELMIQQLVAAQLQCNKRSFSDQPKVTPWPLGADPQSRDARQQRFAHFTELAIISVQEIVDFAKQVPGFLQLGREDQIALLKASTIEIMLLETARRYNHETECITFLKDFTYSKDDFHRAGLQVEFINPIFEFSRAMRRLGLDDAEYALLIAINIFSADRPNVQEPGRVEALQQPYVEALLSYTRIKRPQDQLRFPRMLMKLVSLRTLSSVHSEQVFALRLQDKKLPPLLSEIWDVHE
# [19] = biological target: T3, Sentrin-specific protease 6 (Homo sapiens, UniProt Q9GZR1); assay type: functional;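 further: Luminescence-based dose-response confirmatory assay of SENP6 inhibition, following up an ultra-high-throughput screen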
# T3 sequence (Q9GZR1 whole entry): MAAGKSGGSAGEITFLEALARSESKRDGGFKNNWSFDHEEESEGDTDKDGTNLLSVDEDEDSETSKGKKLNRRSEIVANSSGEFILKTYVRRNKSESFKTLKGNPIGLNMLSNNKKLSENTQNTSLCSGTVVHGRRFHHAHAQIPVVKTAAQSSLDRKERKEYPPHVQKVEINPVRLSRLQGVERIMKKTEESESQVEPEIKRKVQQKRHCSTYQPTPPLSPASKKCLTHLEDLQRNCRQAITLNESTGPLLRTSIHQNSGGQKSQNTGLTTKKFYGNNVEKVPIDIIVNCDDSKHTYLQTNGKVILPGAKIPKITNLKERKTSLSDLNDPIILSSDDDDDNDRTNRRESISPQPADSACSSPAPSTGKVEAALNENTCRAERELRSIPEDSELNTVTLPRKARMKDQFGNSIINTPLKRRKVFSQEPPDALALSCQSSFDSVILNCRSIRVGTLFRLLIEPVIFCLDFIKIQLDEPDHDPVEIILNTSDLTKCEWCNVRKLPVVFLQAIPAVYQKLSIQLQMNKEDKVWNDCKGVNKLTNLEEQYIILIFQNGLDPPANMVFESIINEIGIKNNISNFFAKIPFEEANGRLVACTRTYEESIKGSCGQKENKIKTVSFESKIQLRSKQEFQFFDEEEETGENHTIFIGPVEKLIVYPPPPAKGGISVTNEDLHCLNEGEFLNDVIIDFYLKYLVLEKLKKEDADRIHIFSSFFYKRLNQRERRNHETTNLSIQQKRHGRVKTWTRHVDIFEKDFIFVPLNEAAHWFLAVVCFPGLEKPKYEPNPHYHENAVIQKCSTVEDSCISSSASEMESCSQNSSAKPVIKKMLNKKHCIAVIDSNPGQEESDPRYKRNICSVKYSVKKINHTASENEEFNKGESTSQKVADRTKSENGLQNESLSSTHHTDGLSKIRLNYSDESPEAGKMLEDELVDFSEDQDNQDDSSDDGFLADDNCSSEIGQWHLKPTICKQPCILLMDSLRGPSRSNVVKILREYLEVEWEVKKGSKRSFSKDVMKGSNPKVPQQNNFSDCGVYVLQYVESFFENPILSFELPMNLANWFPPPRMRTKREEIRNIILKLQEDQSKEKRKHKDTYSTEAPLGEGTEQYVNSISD
# [20] = biological target: T4, Sentrin-specific protease 7 (Homo sapiens, UniProt Q9BQF6); assay type: functional;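 further: Luminescence-based dose-response confirmation of ultra-high-throughput screening hits, measuring inhibition of SENP7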
# T4 sequence (Q9BQF6 whole entry): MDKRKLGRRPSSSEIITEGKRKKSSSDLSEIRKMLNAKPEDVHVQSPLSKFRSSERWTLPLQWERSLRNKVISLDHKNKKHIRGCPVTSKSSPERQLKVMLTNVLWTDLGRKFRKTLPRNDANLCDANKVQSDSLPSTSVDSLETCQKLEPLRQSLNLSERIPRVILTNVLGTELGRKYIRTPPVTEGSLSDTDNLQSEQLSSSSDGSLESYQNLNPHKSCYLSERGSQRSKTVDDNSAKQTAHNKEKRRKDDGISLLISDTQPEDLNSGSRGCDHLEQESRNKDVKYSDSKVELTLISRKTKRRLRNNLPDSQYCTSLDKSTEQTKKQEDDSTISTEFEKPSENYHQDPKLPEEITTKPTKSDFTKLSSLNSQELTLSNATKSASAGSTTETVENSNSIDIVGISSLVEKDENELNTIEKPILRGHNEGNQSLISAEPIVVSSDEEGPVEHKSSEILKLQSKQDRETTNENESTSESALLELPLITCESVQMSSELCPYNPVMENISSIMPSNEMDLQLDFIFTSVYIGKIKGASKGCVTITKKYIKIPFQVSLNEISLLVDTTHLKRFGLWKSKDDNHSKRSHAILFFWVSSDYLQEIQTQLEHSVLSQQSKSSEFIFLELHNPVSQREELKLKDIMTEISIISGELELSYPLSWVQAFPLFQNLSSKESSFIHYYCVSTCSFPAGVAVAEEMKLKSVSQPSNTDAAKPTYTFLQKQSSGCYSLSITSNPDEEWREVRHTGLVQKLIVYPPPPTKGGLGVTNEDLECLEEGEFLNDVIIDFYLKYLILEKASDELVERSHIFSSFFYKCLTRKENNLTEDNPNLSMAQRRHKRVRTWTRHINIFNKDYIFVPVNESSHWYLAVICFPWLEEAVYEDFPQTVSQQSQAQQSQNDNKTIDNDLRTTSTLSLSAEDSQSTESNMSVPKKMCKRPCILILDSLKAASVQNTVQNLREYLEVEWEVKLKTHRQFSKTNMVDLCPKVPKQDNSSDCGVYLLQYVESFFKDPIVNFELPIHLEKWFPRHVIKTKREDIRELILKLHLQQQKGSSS
# [21] = biological target: T5, Caspase-3 (Homo sapiens, UniProt P42574); assay type: functional;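 further: Dose-response selectivity test against caspase-3 for candidate inhibitors of sentrin-specific proteases (SENPs)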
# T5 sequence (P42574 whole entry): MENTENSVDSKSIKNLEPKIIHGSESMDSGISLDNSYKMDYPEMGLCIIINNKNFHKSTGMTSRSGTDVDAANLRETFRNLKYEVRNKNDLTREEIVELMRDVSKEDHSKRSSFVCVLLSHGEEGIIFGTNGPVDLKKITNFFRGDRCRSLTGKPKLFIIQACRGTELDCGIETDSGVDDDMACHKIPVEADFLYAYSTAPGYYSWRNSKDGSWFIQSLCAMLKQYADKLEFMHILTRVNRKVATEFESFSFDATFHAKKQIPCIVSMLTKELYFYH
# [22] = biological target: T6, Heat shock factor protein 1 (Mus musculus, UniProt P38532); test: enhancement of HSF1-driven luciferase signal – cell-based, NIH3T3, luminescence, dose retest, confirmation (AID 435004); assay type: functional;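 further: stress induced by proteasome inhibitor MG132 added 30 min after compound; luciferase reporter driven by HSF1 response element in NIH3T3 cells; actives raise luminescence as potentiators of the MG132 stress response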
# T6 sequence (P38532 whole entry): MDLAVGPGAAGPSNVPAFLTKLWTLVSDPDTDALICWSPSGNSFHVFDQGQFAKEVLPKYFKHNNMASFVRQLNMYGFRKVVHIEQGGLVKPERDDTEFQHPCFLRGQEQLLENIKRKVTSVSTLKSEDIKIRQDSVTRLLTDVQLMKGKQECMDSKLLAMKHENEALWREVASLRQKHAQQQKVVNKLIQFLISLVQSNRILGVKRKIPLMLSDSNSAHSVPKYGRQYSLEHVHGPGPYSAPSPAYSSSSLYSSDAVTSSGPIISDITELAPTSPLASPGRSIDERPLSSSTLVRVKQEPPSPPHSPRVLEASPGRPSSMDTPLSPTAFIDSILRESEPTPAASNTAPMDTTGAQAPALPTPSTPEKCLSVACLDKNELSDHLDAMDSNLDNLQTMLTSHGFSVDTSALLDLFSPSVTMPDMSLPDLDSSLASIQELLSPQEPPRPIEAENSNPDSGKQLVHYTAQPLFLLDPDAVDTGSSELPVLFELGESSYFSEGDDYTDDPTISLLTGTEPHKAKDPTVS
# Paired box protein Pax-8, sequence (Q06710 whole entry, the tested form may be a part): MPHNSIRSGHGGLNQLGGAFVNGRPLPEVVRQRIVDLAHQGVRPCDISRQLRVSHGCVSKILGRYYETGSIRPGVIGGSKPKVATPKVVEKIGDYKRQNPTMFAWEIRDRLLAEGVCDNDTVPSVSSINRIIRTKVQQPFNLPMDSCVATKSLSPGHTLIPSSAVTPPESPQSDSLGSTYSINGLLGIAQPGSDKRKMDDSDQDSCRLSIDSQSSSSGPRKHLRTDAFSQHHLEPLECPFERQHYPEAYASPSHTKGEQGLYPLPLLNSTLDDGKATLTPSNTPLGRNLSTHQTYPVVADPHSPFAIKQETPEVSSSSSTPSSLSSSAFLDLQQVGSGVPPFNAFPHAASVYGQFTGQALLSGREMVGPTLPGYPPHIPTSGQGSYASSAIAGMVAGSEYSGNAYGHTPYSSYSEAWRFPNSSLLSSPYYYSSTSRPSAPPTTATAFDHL
structure (smiles),measurement,setting,value
CC(=O)OC1(C)CC(C)C(=O)C(C(O)CC2CC(=O)NC(=O)C2)C1 (stereo not drawn),AC50,[1],14.5 µM (active)
same,AC50,[2],< 0.26 µM (active)
same,IC50,[3],49.8 µM (inactive)
same,AC50,[4],< 0.16 µM (active)
same,AC50,[5],< 0.26 µM (active)
same,AC50,[6],< 0.195 µM (active)
CN(Cc1ccccc1)C(=O)c1[nH]cnc1C(=O)NCC(=O)OC(C)(C)C,EC50,[7],> 167 µM (inactive)
Cc1ccc(S(=O)(=O)N(C)C[C@@H]2Oc3cc(C#Cc4ccncc4)ccc3S(=O)(=O)N([C@@H](C)CO)C[C@H]2C)cc1,AC50,[4],2.39 µM (active)
same,AC50,[8],2.51 µM (active)
COc1ccc(S(=O)(=O)Nc2ccc3c(c2)CC(=O)N([C@@H](C)CO)C[C@H](C)[C@H](CN(C)S(=O)(=O)c2ccc(C)cc2)O3)cc1,AC50,[9],23.8 µM (active)
same,AC50,[10],0.563 µM (active)
same,AC50,[11],3.56 µM (active)
same,AC50,[12],1.7 µM (active)
same,AC50,[13],0.928 µM (active)
same,AC50,[14],33.9 µM (active)
same,AC50,[15],0.553 µM (active)
c1ccc(N2CC3CCc4ccccc4C3=N2)cc1 (stereo not drawn),IC50,[16],58.4 µM (active)
same,EC50,[17],> 67.5 µM (inactive)
same,EC50,[18],> 67.5 µM (inactive)
same,IC50,[19],30.4 µM (active)
same,IC50,[20],5.67 µM (active)
same,IC50,[21],23.3 µM (active)
same,EC50,[22],114 µM (active)

# From ChEMBL document CHEMBL1201862, “PubChem BioAssay data set” (2004)
